Results on 9 compounds are retold here after article PMC10120462, “Styrylquinazoline derivatives as ABL inhibitors selective for different DFG orientations” (Journal of Enzyme Inhibition and Medicinal Chemistry, 2023).

For assay [1], the target named is T1, Lyn B (Homo sapiens, UniProt P07948).
T1 construct: purchased Promega
The assay is described as follows: Tyrosine kinase assay (Kinase Selectivity System TK-2, ADP-Glo). The class given is biochemical. The settings on record: 1 h incubation, mean ± SD of four experiments. A general note: ADP-Glo turns the ADP formed in a reaction into a luminescent signal.

The subject of assay [2] is MCF-7. The assay is described as follows: Cytotoxicity studies (MTS), antiproliferative activity. The class given is cell-based, human. The settings on record: Homo sapiens, MCF7; 72 h, MTS. The text has this: (§1) In contrast, the other cell lines studied represent common cancers found in the human population. Nevertheless, these cell lines are characterised by a different landscape of kinase expression, as reported in[36]. In chronic leukaemia cells, an aberration of the Philadelphia chromosome is common in which a fragment of chromosome 9 is displaced to chromosome 22, leading to the formation of the oncogenic protein BCR-ABL. The altered structure of the protein leads to abnormal activity that promotes excessive growth and differentiation of cells even in the absence of growth factors, as well as inhibition of apoptosis and formation of metastases. Moreover, the status of the TP53 gene in leukaemia is not insignificant. Mutations of the TP53 gene occur in more than 50% of all cancers, leading to increased metastasis and an overall poor prognosis[38]^,[39]. The p53 protein encoded by this gene plays a pivotal role in controlling cell division or cell fate when damage is detected. […] Therefore, interaction between the signalling network of the BCR-ABL pathway and p53 often results in an impairment of p53 function and survival[43]^,[44]. […] Selectivity studies were performed on normal human fibroblast – NHDF cell line.
(§2) M. Rusin from the Maria Sklodowska-Curie Memorial Cancer Centre and Institute of Oncology in Gliwice, Poland. […] G. Kramer-Marek from the Institute of Cancer Research in London, United Kingdom. The human suspension chronic myeloids leukaemia cell line K562 and the pancreatic ductal adenocarcinoma cell line PANC-1 were purchased from Merck. The normal human dermal fibroblasts cell line NHDF were obtained from PromoCell. All adherent cancer cell lines were cultured in Dulbecco’s Modified Eagle’s medium (DMEM) supplemented with 10% heat-inactivated foetal bovine serum – FBS (all from Merck). […] Each complete medium contained a mixture of two antibiotics - penicillin and streptomycin (1% v/v; Gibco). Cell lines were cultured at 37 °C with 5% CO2 humidified atmosphere.
(§3) The assay was carried out after 72 h of incubation with different concentrations of the tested compounds. Then DMEM without phenol red was added to each well with CellTiter 96®AQueous One Solution-MTS (Promega) solution and incubated for 1 h or 3 h (PANC-1) at 37 °C. The optical densities of the samples were measured at 490 nm using a multi-plate reader (Synergy 4, BioTek). […] Each compound was tested in triplicate in a single experiment and each experiment was performed three or four times.

The test system of assay [3] is PANC-1. Described as above. Format: cell-based, human. The settings on record: Homo sapiens, PANC-1; 72 h, MTS.
Text: as §1, §2, §3

Assay [4] concerns U-251. Described as above. The class given is cell-based, human. The settings on record: Homo sapiens, U-251; 72 h, MTS.
Text: as §1, §2, §3

For assay [5], the system named is HCT 116 p53+/+. The assay is described as above. Conditions: Homo sapiens, HCT-116; 72 h, MTS. The class given is cell-based, human.
Text: as §1, §2, §3

Assay [6] deals with K562. The description is as above. Format: cell-based, human. Conditions: Homo sapiens, K562; 72 h, MTS.
Text: as §1, §2, §3

In assay [7] the target is T2, ABL (Homo sapiens, UniProt P00519).
T2 construct: purchased Promega
T2 sequence (P00519 whole entry): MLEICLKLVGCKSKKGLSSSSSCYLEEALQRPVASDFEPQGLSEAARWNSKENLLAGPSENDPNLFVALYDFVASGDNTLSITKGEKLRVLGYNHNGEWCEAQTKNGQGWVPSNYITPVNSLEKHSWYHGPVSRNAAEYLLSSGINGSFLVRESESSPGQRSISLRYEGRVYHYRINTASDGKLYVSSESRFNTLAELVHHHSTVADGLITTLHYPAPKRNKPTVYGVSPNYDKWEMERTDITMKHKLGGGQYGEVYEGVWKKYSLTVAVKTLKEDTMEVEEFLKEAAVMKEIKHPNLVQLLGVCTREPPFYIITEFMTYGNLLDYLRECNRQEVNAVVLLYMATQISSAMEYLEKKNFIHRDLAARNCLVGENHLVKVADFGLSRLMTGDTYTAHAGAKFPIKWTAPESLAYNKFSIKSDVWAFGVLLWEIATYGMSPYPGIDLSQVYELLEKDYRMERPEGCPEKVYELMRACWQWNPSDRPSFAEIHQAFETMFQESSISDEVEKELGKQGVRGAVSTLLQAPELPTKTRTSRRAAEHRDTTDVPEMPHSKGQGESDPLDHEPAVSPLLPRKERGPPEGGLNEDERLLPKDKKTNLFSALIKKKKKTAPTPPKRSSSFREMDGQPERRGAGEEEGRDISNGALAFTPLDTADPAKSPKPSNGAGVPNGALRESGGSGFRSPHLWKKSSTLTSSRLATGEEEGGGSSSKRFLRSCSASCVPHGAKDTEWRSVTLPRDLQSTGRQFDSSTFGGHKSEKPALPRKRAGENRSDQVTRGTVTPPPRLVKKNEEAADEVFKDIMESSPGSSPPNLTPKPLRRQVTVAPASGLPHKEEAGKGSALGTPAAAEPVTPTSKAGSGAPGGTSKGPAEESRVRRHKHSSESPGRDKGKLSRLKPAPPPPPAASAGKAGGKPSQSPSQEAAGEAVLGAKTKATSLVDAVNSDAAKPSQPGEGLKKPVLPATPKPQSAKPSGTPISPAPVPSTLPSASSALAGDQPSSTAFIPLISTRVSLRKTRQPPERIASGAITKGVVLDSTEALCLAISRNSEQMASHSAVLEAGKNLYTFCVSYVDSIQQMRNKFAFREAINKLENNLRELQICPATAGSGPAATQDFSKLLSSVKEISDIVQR
The assay can be described thus: Tyrosine kinase assay (Kinase Selectivity System TK-2, ADP-Glo). Format: biochemical. The settings on record: 1 h incubation, mean ± SD of four experiments.

Assay [8] deals with T3, Fyn A (Homo sapiens, UniProt P06241).
T3 construct: purchased Promega
T3 sequence (P06241 whole entry): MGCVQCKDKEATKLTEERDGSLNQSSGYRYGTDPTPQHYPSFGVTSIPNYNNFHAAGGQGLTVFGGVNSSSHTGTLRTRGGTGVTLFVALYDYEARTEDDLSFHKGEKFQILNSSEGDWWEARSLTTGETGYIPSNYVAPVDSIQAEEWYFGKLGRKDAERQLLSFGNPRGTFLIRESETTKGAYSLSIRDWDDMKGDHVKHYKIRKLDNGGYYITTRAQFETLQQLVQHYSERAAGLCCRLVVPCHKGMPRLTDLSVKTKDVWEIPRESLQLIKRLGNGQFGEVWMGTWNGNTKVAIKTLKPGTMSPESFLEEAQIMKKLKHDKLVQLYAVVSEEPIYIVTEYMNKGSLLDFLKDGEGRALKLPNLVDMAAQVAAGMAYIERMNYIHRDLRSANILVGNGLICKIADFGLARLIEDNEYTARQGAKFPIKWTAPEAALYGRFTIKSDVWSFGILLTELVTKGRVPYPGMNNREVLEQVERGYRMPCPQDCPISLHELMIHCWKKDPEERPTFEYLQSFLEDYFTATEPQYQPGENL
Described as above. Format: biochemical. The settings on record: 1 h incubation, mean ± SD of four experiments. The source says:
All newly synthesised derivatives were screened for their inhibitory potential towards eight non-receptor tyrosine kinases, such as ABL, BTK, BRK and Src family kinases, such as CSK, Lyn, Lck, Fyn and Src. […] To facilitate the analysis of the structure and enzymatic activity, all tested compounds were divided into four subgroups based on the main structural scaffolds (the general structure of each group is shown in the second column of Table 1). Series A, B, and C were subdivided according to the S^4-aryl substituent, while D represents the different styryl groups at the C^2-quinazoline position.
Herein, we used a kinase assay that contained fully expressed kinases with their regulatory domains, which are responsible for autoinhibition. The proteins are present in their unphosphorylated form and the procedure required supplementation with ATP. Importantly, autophosphorylation of ABL is dependent on […] concentration of the protein. Thus, our experimental conditions reflect the cellular process to be simulated. The luminescence signal detected after one hour of incubation with a peptide substrate was a measure of inhibition. Under these conditions, the question of whether the inhibitors tested bind to the ortho or allosteric site of the protein could be answered. […] To test this hypothesis, further molecular docking experiments were performed to more precisely determine the binding of the tested compounds to the ABL kinase.
To determine the inhibition of non-receptor tyrosine kinases, assays were performed using the kinase selectivity system TK-2 and the ADP-Glo Kinase Assay (both from Promega). The protocol was previously developed by our group and described in reports[12]^,[36]. Experiments were performed at least four times. Data are expressed as percentage of tyrosine kinase inhibitory activity after treatment with the derivatives tested.

For assay [9], the target named is T4, CSK (Homo sapiens, UniProt P41240).
T4 construct: purchased Promega
T4 sequence (P41240 whole entry): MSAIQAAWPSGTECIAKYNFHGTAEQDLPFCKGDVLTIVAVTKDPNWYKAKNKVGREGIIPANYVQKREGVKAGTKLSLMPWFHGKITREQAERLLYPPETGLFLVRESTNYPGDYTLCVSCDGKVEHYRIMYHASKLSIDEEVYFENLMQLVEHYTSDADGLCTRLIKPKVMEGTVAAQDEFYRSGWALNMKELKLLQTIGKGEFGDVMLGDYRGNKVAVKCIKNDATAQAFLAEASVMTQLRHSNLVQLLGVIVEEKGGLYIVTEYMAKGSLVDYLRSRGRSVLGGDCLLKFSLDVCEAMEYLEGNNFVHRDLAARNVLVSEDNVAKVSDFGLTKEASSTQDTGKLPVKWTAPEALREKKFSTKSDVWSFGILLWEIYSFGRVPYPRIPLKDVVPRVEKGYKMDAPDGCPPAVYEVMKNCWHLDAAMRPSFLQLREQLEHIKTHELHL
Described as above. Format: biochemical. Conditions: 1 h incubation, mean ± SD of four experiments.

Assay [10] concerns the target T5, Lck (Homo sapiens, UniProt P06239).
T5 construct: purchased Promega
The description is as above. The settings on record: 1 h incubation, mean ± SD of four experiments. The class given is biochemical.

The target in assay [11] is T6, Src (Homo sapiens, UniProt P12931).
T6 construct: purchased Promega
T6 sequence (P12931 whole entry): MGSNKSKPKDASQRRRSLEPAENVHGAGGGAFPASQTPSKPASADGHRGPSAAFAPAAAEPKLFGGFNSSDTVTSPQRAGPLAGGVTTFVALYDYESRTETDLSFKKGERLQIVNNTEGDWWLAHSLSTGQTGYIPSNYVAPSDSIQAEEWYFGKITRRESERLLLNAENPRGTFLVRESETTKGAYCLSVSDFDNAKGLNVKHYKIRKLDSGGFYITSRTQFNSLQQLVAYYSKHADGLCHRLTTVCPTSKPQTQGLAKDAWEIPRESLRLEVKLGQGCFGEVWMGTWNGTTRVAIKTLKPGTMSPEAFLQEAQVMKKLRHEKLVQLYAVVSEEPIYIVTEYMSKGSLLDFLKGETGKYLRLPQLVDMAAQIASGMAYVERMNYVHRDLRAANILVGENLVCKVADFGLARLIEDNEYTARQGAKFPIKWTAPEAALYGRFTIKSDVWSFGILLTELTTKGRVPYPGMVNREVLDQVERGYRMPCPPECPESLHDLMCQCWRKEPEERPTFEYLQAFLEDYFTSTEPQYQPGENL
Described as above. Format: biochemical. Conditions: 1 h incubation, mean ± SD of four experiments.

The test system of assay [12] is HCT 116 p53−/−. The assay is described as follows: Cytotoxicity studies (MTS), antiproliferative activity. The class given is cell-based, human. Conditions: Homo sapiens, HCT-116; 72 h, MTS.
Text: as §1, §2, §3

The target of assay [13] is T7, BTK (Homo sapiens, UniProt Q06187).
T7 construct: purchased Promega
T7 sequence (Q06187 whole entry): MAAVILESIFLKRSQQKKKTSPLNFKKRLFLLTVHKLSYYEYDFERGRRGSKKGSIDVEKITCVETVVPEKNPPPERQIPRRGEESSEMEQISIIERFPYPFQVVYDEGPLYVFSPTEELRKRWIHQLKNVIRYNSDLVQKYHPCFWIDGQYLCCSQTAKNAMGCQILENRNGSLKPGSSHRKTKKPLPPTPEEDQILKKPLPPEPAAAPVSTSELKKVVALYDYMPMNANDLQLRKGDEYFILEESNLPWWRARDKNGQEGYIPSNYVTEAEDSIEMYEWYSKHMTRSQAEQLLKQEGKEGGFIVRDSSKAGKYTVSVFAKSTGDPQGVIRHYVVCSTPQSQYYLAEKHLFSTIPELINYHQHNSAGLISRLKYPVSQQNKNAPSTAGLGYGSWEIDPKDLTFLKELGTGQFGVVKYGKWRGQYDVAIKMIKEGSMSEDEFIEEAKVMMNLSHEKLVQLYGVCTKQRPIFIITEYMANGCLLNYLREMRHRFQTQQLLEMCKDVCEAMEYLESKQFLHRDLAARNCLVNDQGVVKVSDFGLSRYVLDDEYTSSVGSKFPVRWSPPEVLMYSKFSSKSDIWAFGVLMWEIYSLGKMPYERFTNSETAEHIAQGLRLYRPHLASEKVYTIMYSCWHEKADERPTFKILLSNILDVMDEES
The assay can be described thus: Tyrosine kinase assay (Kinase Selectivity System TK-2, ADP-Glo). Format: biochemical. Conditions: 1 h incubation, mean ± SD of four experiments.

The target of assay [14] is T8, BRK (Homo sapiens, UniProt Q13882).
T8 construct: purchased Promega
T8 sequence (Q13882 whole entry): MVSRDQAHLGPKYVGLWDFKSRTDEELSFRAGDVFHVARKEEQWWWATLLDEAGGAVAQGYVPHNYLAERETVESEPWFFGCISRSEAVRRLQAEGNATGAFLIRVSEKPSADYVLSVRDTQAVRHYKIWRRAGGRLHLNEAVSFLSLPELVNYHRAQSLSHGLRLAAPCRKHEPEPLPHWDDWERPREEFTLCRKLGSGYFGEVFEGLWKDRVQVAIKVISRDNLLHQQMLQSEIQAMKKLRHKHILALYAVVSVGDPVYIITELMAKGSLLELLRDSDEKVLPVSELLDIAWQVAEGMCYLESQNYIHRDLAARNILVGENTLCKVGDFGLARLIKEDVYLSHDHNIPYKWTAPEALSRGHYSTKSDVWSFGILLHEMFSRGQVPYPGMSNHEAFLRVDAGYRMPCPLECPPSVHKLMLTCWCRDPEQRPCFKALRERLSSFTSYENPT
The description is as above. Conditions: 1 h incubation, mean ± SD of four experiments. The class given is biochemical.

For assay [15], the system named is A549. The assay can be described thus: Cytotoxicity studies (MTS), antiproliferative activity. The settings on record: Homo sapiens, A549; 72 h, MTS. Format: cell-based, human.
Text: as §1, §2, §3

T1 sequence (P07948 1-491 isoform P07948-2): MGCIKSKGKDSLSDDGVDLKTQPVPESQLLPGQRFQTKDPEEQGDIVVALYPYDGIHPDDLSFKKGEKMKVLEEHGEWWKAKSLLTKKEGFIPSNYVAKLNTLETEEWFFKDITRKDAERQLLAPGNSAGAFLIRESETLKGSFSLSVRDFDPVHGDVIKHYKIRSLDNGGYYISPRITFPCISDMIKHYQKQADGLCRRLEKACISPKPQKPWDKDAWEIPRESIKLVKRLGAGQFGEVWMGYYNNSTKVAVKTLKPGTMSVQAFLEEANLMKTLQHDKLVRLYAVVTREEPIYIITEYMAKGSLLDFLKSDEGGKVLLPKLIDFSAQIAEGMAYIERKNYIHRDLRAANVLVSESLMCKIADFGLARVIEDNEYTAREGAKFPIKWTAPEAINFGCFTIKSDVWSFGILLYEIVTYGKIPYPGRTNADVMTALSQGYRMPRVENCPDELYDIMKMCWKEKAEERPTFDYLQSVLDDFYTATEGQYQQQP
T5 sequence (P06239 whole entry): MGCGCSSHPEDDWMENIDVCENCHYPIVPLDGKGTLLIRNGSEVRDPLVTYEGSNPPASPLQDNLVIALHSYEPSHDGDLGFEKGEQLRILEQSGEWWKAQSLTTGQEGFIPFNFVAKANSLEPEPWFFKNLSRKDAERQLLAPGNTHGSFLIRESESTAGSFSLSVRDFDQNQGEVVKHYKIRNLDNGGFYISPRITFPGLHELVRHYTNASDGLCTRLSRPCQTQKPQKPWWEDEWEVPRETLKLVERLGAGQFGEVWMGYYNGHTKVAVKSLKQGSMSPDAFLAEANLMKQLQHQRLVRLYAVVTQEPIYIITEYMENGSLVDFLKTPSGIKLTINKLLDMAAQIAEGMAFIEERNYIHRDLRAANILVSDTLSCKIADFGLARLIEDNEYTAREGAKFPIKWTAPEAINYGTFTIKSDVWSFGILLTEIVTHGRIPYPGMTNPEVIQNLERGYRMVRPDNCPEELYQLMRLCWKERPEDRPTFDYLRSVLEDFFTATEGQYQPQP

Broadly, the inhibition is the change of the read-out against control, counted positive when it falls. A low value points to a weak effect. By IC50 is commonly meant the concentration needed to halve the response being measured. With `COc1ccccc1/C=C/c1nc(Sc2ccccn2)c2ccc(Cl)cc2n1` [IS14, 2-[(E)-2–(2-methoxyphenyl)ethenyl]-7-chloro-4-(pyrid-2-ylthio)quinazoline], the inhibition at 0.5 µM in assay [1] was found to be 0%; in assay [7] it was 7.64 ± 0.7%; in [8] it was 16 ± 7.94%; in [9] it was 0%; in assay [10], 14.8 ± 6.02%; in [11], 40.5 ± 9.17%. In addition, the IC50 in assay [2] was over 25 µM; in assay [3] it was over 25 µM; in assay [4], over 25 µM; in assay [5], over 25 µM; in assay [6], 21.6 ± 2.1 µM.
Turning to `COc1ccccc1/C=C/c1nc(Sc2cc(Cl)ccc2Cl)c2ccccc2n1` [IS3, 2-[(E)-2–(2-methoxyphenyl)ethenyl]-4–(2,5-dichlorophenylthio)quinazoline], the inhibition at 0.5 µM was determined as 26.2 ± 1.55% in assay [1]; 4.02 ± 3.58% in assay [7]; 31.6 ± 2.38% in assay [13]; 60 ± 2.85% in assay [8]; 35 ± 1.11% in assay [9]; 0% in [14]. The inhibition at 0.5 µM was found to be 13.4 ± 5.58% in assay [10] and 0% in assay [11]. Also, the IC50 in assay [2], in assay [12], in [5] and in [6] was over 25 µM each time.
Consider `COc1ccccc1/C=C/c1nc(Sc2ccccc2F)c2ccccc2n1` [IS5, 2-[(E)-2–(2-methoxyphenyl)ethenyl]-4–(2-fluorophenylthio)quinazoline], for which the inhibition at 0.5 µM in assay [1] worked out at 7.67 ± 3.28%; in assay [7] it was 18.5 ± 1.59%; in [8], 3.77 ± 1.21%; in assay [9], 23.1 ± 5.24%; in assay [10] it was 37 ± 7.87%; in assay [11], 28.2 ± 5.41%. The IC50 in assay [2], in [3], in assay [4], in assay [5] and in [6] was over 25 µM in each case.
Take `COc1cccc(Sc2nc(/C=C/c3ccccc3OC)nc3cc(Cl)ccc23)c1` [IS13, 2-[(E)-2–(2-methoxyphenyl)ethenyl]-7-chloro-4–(3-methoxyphenylthio)quinazoline]: the inhibition at 0.5 µM in assay [1], in [7], in assay [13], in assay [8], in assay [9] and in assay [14] was 0% throughout. In addition, the inhibition at 0.5 µM in assay [10] and in assay [11] was 0% in each case. Besides, the IC50 in [2], in assay [12], in assay [15], in assay [4], in assay [5] and in assay [6] was over 25 µM throughout.
As to `COc1ccccc1/C=C/c1nc(Sc2ccccc2C(F)(F)F)c2ccccc2n1` [IS6, 2-[(E)-2–(2-methoxyphenyl)ethenyl]-4-[2-(trifluoromethyl)phenylthio]quinazoline], the inhibition at 0.5 µM was determined as 1.39 ± 0.41% in assay [1]; 1.18 ± 0.17% in assay [7]; 26.1 ± 8.39% in assay [8]; 0% in assay [9]; 0% in assay [10]; 43.8 ± 9.07% in assay [11]. Besides, the IC50 in assay [2], in [3], in assay [4], in [5] and in assay [6] was over 25 µM throughout.
For `COc1ccccc1/C=C/c1nc(Sc2ccccc2Cl)c2ccc(Cl)cc2n1` [IS12, 2-[(E)-2–(2-methoxyphenyl)ethenyl]-7-chloro-4–(2-chlorophenylthio)quinazoline], the inhibition at 0.5 µM was determined as 0% in assay [1]; 0% in [7]; 15.4 ± 4.19% in assay [13]; 0% in assay [8]; 0% in assay [9]; 0% in [14]. Moreover, the inhibition at 0.5 µM in [10] and in [11] was 0% in each case. The IC50 in assay [2], in assay [12], in [15], in assay [4], in assay [5] and in [6] was over 25 µM in each case.
On to `COc1ccc(/C=C/c2nc(Sc3ccccc3Cl)c3ccccc3n2)cc1` [IS18, 2-[(E)-2–(4-methoxyphenyl)ethenyl]-4–(2-chlorophenylthio)quinazoline], for which the inhibition at 0.5 µM was 13.8 ± 1% in assay [1]; 11.7 ± 4.03% in assay [7]; 17.3 ± 4.47% in [8]; 0% in assay [9]; 66.5 ± 7.49% in assay [10]; 26.1 ± 6.03% in assay [11]. The IC50 in assay [2] was 10.6 ± 1.38 µM; in [3], 12 ± 1.2 µM; in assay [4] it was 10.3 ± 0.818 µM; in assay [5], 11.1 ± 1.37 µM; in [6], over 25 µM.
For `COc1ccccc1/C=C/c1nc(Sc2cccc(Cl)c2)c2ccccc2n1` [IS2, 2-[(E)-2–(2-methoxyphenyl)ethenyl]-4–(3-chlorophenylthio)quinazoline], the inhibition at 0.5 µM in assay [1] is 38.4 ± 8.58%; in assay [7] it was 25.2 ± 3.69%; in [8] it was 52%; in assay [9], 62.1 ± 4.45%; in assay [10], about 74%; in [11] it was 58%. Further, the IC50 in [2] was 19.7 ± 1.13 µM; in assay [3], 25.1 ± 1.44 µM; in assay [4], over 25 µM; in assay [5], 23.8 ± 5.32 µM; in assay [6], 24.8 ± 2.45 µM. The “Inhibition of tyrosine kinase activity [%] Fyn A” value in assay [8] (0.5 μM) is 52.32 ± 7.04%. In assay [10] (0.5 μM), the “Inhibition of tyrosine kinase activity [%] Lck” value was found to be 73.92 ± 9.72%. Also, in assay [11] (0.5 μM), the “Inhibition of tyrosine kinase activity [%] Src” value is recorded as 58.56 ± 4.80%.
As to `Cc1nc(Nc2ncc(C(=O)Nc3c(C)cccc3Cl)s2)cc(N2CCN(CCO)CC2)n1` [Dasatinib, dasatinib, reference compound], the inhibition at 0.5 µM in assay [1] came to 97.5 ± 1.49%; in assay [8], 92.3 ± 2.55%; in assay [9] it was 94.2 ± 1.28%.
